Results from paper PMC4449006, “Targeting KRAS Oncogene in Colon Cancer Cells with 7-Carboxylate Indolo[3,2-b]quinoline Tri-Alkylamine Derivatives” (PLoS ONE, 2015).

Assays:
[1] = test system: KRAS21 G-quadruplex DNA; assay: FRET melting assay, KRAS G-quadruplex DNA; format: binding; conditions: standard deviation < 0.2°C
Protocol: (§1) The capacity of compounds 1a-d, 2a-d and the standard G4 ligand TMPyP4 (Fig 1) to bind and stabilize KRAS [26] and HSP90A [27] G4 DNA structures as well as duplex DNA (T-loop) was evaluated by a Fluorescence Resonance Energy Transfer (FRET) melting assay. […] It was observed that the basicity of side chains correlates positively with thermal G4 stabilization of all DNA sequences up to an optimal pKa ~ 8.0–9.0 (Fig 2). Heterocyclic amines at the end of alkyl side chain (1b and 2b) appear to improve binding to G4s and complex stabilization compared to the di-ethylamine group (1a and 2a), which cannot be explained by differences in basicity between terminal groups. […] However, this was not observed for the isomeric pair 1a / 2a.
(§2) All oligonucleotides were purchased from Eurofins MWG Synthesis GmbH, Germany. The labeled oligonucleotides used in the FRET assays had attached the donor fluorophore FAM (6-carboxyfluorescein) and the acceptor fluorophore TAMRA (6-carboxytetramethylrhodamine): KRAS21R (5’-FAM-[…]-TAMRA-3’); HSP90A (5’- [FAM]-[…]-[TAMRA]-3’); T-Loop (5’-FAM-[…]-TAMRA-3’). Each oligonucleotide was initially diluted to a storage solution at 100 μM in nuclease free water (not DEPC-treated), purchased from Ambion Applied Biosystems UK.
(§3) The ability of IQ3A and TMPyP4 to stabilize G-quadruplex and duplex DNA sequences was investigated using a Fluorescence Resonance Energy Transfer (FRET) assay. Stock solution of the oligonucleotides sequences at 20 μM and subsequent dilutions were obtained from storage solutions diluting with K-cacodylate buffer pH = 7.4, containing 60 mM K^+ (10 mM potassium cacodylate, 50 mM KCl). The FRET probe sequences were diluted from stock to the correct concentration (0.4 μM) and then annealed by heating to 95°C for 10 min, followed by cooling to RT. Test compounds were prepared as 1 mM in 10% DMSO and 10% 1mM HCl in HPLC-grade water. The rest of the dilutions were performed using FRET buffer. Annealed DNA (50 μL) and compound solution (50 μL) were distributed across 96-well RT-PCR plates (BioRad; MJ Research, Waltham, MA, USA). Relevant controls were also performed to check for interference with the assay. Fluorescence readings were made on a DNA Engine Opticon (MJ Research) with excitation at 450–495 nm and detection at 515–545 nm, taken at intervals of 0.5°C in the range 30–100°C, with a constant temperature being maintained for 30 s prior to each reading to ensure a stable value. Experiments were performed in triplicate. Final analysis of the data was carried out with GraphPad Prism 5.0 software (GraphPad Software, Inc). The advanced curve-fitting function in GraphPad Prism was used for calculation of ΔT m values and associated standard deviations.

[2] = test system: HSP90A G-quadruplex DNA; assay: FRET melting assay, HSP90A G-quadruplex DNA; format: binding; conditions: standard deviation < 0.2°C
Protocol: as §1, §2, §3

[3] = test system: T-Loop duplex DNA; assay: FRET melting assay, duplex DNA; format: binding; conditions: standard deviation < 0.2°C
Protocol: as §1, §2, §3

[4] = test system: HCT116 cells; assay: MTS short-term cytotoxicity assay (72 h), HCT116; format: cell-based, human
[5] = test system: HEK293T cells; assay: MTS short-term cytotoxicity assay (72 h), HEK293T; format: cell-based, human; conditions: MTS
[6] = test system: CCD18co cells; assay: MTS short-term cytotoxicity assay (72 h), CCD18co; format: cell-based; conditions: Homo sapiens, CCD-18Co, MTS, standard errors ≤ 0.1, read-out: CCD18co IC50

## CCN(CC)CCOC(=O)c1ccc2c(c1)c1nc3ccccc3c(OCCN(CC)CC)c1n2CCN(CC)CC [1a]
[1]; 1 μM compound
  ΔTm (°C) KRAS21 1 μM: 8 °C
[1]; 2 μM compound
  ΔTm (°C) KRAS21 2 μM: 12 °C
[2]; 1 μM compound
  ΔTm (°C) HSP90A 1 μM: 14 °C
[2]; 2 μM compound
  ΔTm (°C) HSP90A 2 μM: 20 °C
[3]; 1 μM compound
  ΔTm (°C) T-Loop 1 μM: <2 °C
[3]; 2 μM compound
  ΔTm (°C) T-Loop 2 μM: 3 °C
[4]; 72 h, MTS, standard errors ≤ 0.1
  HCT116 IC65: 3.42 µM
[4]; CCD18co vs HCT116
  Selective index (SI) = IC50 CCD-18co / IC50 HCT116: 2.46
[4]; Homo sapiens, HCT-116, 72 h, MTS, standard errors ≤ 0.1, read-out: HCT116 IC50
  IC50: 1880 nM
[5]; Homo sapiens, HEK-293T, standard errors ≤ 0.1, read-out: HEK293T IC50
  IC50: 3.23 µM
[5]; standard errors ≤ 0.1
  HEK293T IC65: 6.06 µM
[6]
  IC50: 4.63 µM
